# Data published in patent publication US8487108B2, “Piperidinyl carbamate intermediates for the synthesis of aspartic protease inhibitors” (Vitae Pharmaceuticals, Inc., priority 2005, dated 2013).
# Target: T1, trypsin-activated recombinant human renin (Homo sapiens, UniProt P00797)
# T1 sequence (P00797 67-406): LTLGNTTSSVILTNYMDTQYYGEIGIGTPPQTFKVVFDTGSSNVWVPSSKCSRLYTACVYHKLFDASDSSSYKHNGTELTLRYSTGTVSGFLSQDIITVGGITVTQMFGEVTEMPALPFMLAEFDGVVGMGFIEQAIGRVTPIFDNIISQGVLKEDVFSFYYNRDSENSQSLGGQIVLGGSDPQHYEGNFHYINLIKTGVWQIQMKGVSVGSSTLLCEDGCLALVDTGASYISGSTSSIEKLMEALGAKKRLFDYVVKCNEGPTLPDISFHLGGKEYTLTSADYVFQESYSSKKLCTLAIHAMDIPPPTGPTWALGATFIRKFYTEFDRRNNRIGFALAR
# Assay: Renin fluorescence assay (internally quenched peptide substrate)
# Type: biochemical
# Conditions: compounds I*
# Procedure, shortened: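 Cleavage of an angiotensinogen-derived DABCYL-quenched peptide by trypsin-activated recombinant human renin (0.2-2 nM final) in 50 mM BES, 150 mM NaCl, 0.25 mg/mL BSA, pH 7.0; compounds 10 μM to 1 nM final. Fluorescence (ex 340/em 495 nm) followed 60-360 min at rt; linear-slope rates give percent inhibition versus uninhibited control.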
row,SMILES,IC50
1,"CNCC(C[C@@H]1C[C@@H](F)[C@@H](F)C1)NC(=O)N1CCC[C@@H]([C@@H](OCCNC(=O)OC)c2cccc(Cl)c2)C1 (stereo partly drawn) [I*-125a, methyl 2-((R)-(3-chlorophenyl)((R)-1-((S)-1-((1s,3R,4S)-3,4-difluorocyclopentyl)-3-(methylamino)propan-2-ylcarbamoyl)piperidin-3-yl)methoxy)ethylcarbamate]",< 10 nM
2,"CNCC(CC1CCCOC1)NC(=O)N1CCCC(C(O)(CCCNC(=O)OC)c2cccc(F)c2)C1 [I*-54a, methyl (S)-4-(3-fluorophenyl)-4-hydroxy-4-((3R)-1-((S)-1-(methylamino)-3-(tetrahydro-2H-pyran-3-yl)propan-2-ylcarbamoyl)piperidin-3-yl)butylcarbamate]",< 50 nM
3,"CNC[C@H](CC1(C)CCCCC1)NC(=O)N1CCC[C@@H]([C@@H](OCCNC(=O)OC)c2cccc(F)c2)C1 [I*-43a, methyl 2-((R)-(3-fluorophenyl)((R)-1-((S)-1-(methylamino)-3-(1-methylcyclohexyl)propan-2-ylcarbamoyl)piperidin-3-yl)methoxy)ethylcarbamate]",< 10 nM
4,"CN[C@H](C)[C@H](CC1CCCCC1)NC(=O)N1CCC[C@@H]([C@@H](OCCNC(=O)OC)c2cccc(Cl)c2)C1 [I*-82a, methyl 2-((R)-(3-chlorophenyl)((R)-1-((2S,3R)-1-cyclohexyl-3-(methylamino)butan-2-ylcarbamoyl)piperidin-3-yl)methoxy)ethylcarbamate]",< 1 nM
5,"CNC[C@H](CC1CCCCC1)NC(=O)N1CCC[C@@H]([C@@H](OCCNC(=O)OC)c2ccccc2)C1 (mixture of isomers) [I*-2a, methyl 2-((R)—((R)-1-((±)-1-cyclohexyl-3-(methylamino)propan-2-ylcarbamoyl)piperidin-3-yl)(phenyl)methoxy)ethylcarbamate]",< 10 nM
6,"CNC[C@H](CC1CCCCC1)NC(=O)N1CCC[C@@H]([C@@H](OCCNC(=O)OC)c2cc(F)c(F)c(F)c2)C1 [I*-119a, methyl 2-((R)-((R)-1-((S)-1-cyclohexyl-3-(methylamino)propan-2-ylcarbamoyl)piperidin-3-yl)(3,4,5-trifluorophenyl)methoxy)ethylcarbamate]",< 10 nM
7,"CNC[C@H](C[C@@H]1CCCOCC1)NC(=O)N1CCC[C@@H]([C@@H](OCCNC(=O)OC)c2cccc(Cl)c2)C1 [I*-99a, methyl 2-((R)-(3-chlorophenyl)((R)-1-((S)-1-(methylamino)-3-((S)-oxepan-4-yl)propan-2-ylcarbamoyl)piperidin-3-yl)methoxy)ethylcarbamate]",< 10 nM
8,"CNC[C@H](C[C@H]1CCCOC1)NC(=O)N1CCC[C@@H]([C@@](O)(CCCNC(=O)OC)c2cccc(Cl)c2F)C1 [I*-142a, methyl (S)-4-(3-chloro-2-fluorophenyl)-4-hydroxy-4-((R)-1-((S)-1-(methylamino)-3-((R)-tetrahydro-2H-pyran-3-yl)propan-2-ylcarbamoyl)piperidin-3-yl)butylcarbamate]",< 10 nM
9,"CNCC(C[C@H]1C[C@@H](C)O[C@@H](C)C1)NC(=O)N1CCC[C@@H]([C@@H](OCCNC(=O)OC)c2cccc(Cl)c2)C1 (stereo partly drawn) [I*-132a, methyl 2-((R)-(3-chlorophenyl)((R)-1-((S)-1-((2S,4r,6R)-2,6-dimethyl-tetrahydro-2H-pyran-4-yl)-3-(methylamino)propan-2-ylcarbamoyl)piperidin-3-yl)methoxy)ethylcarbamate]",> 50 nM
10,"CNC[C@@H](NC(=O)N1CCC[C@@H]([C@@H](OCCNC(=O)OC)c2cc(F)ccc2C)C1)[C@@H](O)C1CCCC1 [I*-53a, methyl 2-((R)-((R)-1-((1S,2R)-1-cyclopentyl-1-hydroxy-3-(methylamino)propan-2-ylcarbamoyl)piperidin-3-yl)(5-fluoro-2-methylphenyl)methoxy)ethylcarbamate]",< 20 nM
11,"CNC[C@H](C[C@H]1CCCOC1)NC(=O)N1CCCC[C@@H]([C@@H](OCCNC(=O)OC)c2cccc(F)c2)C1 [I*-56a, methyl 2-((R)-(3-fluorophenyl)((R)-1-((S)-1-(methylamino)-3-((R)-tetrahydro-2H-pyran-3-yl)propan-2-ylcarbamoyl)azepan-3-yl)methoxy)ethylcarbamate]",< 10 nM
12,"CCNC[C@H](CC1CCCCC1)NC(=O)N1CCC[C@@H]([C@@H](OCCNC(=O)OC)c2cccc(F)c2)C1 [I*-41a, methyl 2-((R)-((R)-1-((S)-1-cyclohexyl-3-(ethylamino)propan-2-ylcarbamoyl)piperidin-3-yl)(3-fluorophenyl)methoxy)ethylcarbamate]",< 10 nM
13,"CNC[C@@H](NC(=O)N1CCC[C@@H]([C@@H](OCCNC(=O)OC)c2cccc(F)c2)C1)[C@@H](O)C1CCCCC1 [I*-48a, methyl 2-((R)-((R)-1-((1S,2R)-1-cyclohexyl-1-hydroxy-3-(methylamino)propan-2-ylcarbamoyl)piperidin-3-yl)(3-fluorophenyl)methoxy)ethylcarbamate]",< 10 nM
14,"CNC[C@H](CC1CCOCC1)NC(=O)N1CCC[C@@H]([C@@H](OCCNC(=O)OC)c2cccs2)C1 [I*-15a, methyl 2-((R)-((R)-1-((S)-1-(methylamino)-3-(tetrahydro-2H-pyran-4-yl)propan-2-ylcarbamoyl)piperidin-3-yl)(thiophen-2-yl)methoxy)ethylcarbamate]",> 50 nM
15,"CNC[C@H](CC1CCCCCC1)NC(=O)N1CCC[C@@H]([C@@H](OCCNC(=O)OC)c2cccc(Cl)c2F)C1 [I*-135a, methyl 2-((R)-(3-chloro-2-fluorophenyl)((R)-1-((S)-1-cycloheptyl-3-(methylamino)propan-2-ylcarbamoyl)piperidin-3-yl)methoxy)ethylcarbamate]",< 10 nM
16,"CNC[C@H](C[C@H]1CCCCOC1)NC(=O)N1CCC[C@@H]([C@@H](OCCNC(=O)OC)c2ccccc2)C1 [I*-21a, Methyl 2-((R)—((R)-1-((S)-1-(methylamino)-3-((R)-oxepan-3-yl)propan-2-ylcarbamoyl)piperidin-3-yl)(phenyl)methoxy)ethylcarbamate]",< 10 nM
17,"CNC[C@H](CCC1(OC)CCCC1)NC(=O)N1CCC[C@@H]([C@@H](OCCNC(=O)OC)c2cc(F)cc(F)c2)C1 [I*-134a, methyl 2-((R)-(3,5-difluorophenyl)((R)-1-((S)-4-(1-methoxycyclopentyl)-1-(methylamino)butan-2-ylcarbamoyl)piperidin-3-yl)methoxy)ethylcarbamate]",> 50 nM
18,"COC(=O)NCCO[C@@H](c1cccc(Cl)c1)[C@@H]1CCCN(C(=O)NC[C@@H](N)C[C@H]2CCCCOC2)C1 [I*-68a, methyl 2-((R)-((R)-1-((S)-2-amino-3-((R)-oxepan-3-yl)propylcarbamoyl)piperidin-3-yl)(3-chlorophenyl)methoxy)ethylcarbamate]",< 1 nM
19,"CNC[C@H](CN1CCCCC1=O)NC(=O)N1CCC[C@@H]([C@@H](OCCNC(=O)OC)c2cccc(Cl)c2)C1 [I*-93a, methyl 2-((R)-(3-chlorophenyl)((R)-1-((R)-1-(methylamino)-3-(2-oxopiperidin-1-yl)propan-2-yl-carbamoyl)piperidin-3-yl)methoxy)ethylcarbamate]",> 50 nM
20,"CNC[C@H](C[C@H]1CCC2(CC2)OC1)NC(=O)N1CCC[C@@H]([C@@H](OCCNC(=O)OC)c2cc(F)cc(F)c2)C1 [I*-160a, methyl 2-((R)-(3,5-difluorophenyl)((R)-1-((S)-1-((R)-4-oxaspiro[2.5]octan-6-yl)-3-(methylamino)propan-2-ylcarbamoyl)piperidin-3-yl)methoxy)ethylcarbamate]",< 1 nM
21,"CNC[C@H](CC1CCCCCC1)NC(=O)N1CCC[C@@H]([C@@H](OCCNC(=O)OC)c2cccc(F)c2)C1 [I*-39a, methyl 2-((R)-((R)-1-((S)-1-cycloheptyl-3-(methylamino)propan-2-ylcarbamoyl)piperidin-3-yl)(3-fluorophenyl)methoxy)ethylcarbamate]",< 1 nM
22,"COC(=O)NCCO[C@@H](c1cc(F)cc(Cl)c1)[C@@H]1CCCN(C(=O)NC[C@@H](N)C[C@H]2CCCCOC2)C1 [I*-122a, methyl 2-((R)-((R)-1-((S)-2-amino-3-((R)-oxepan-3-yl)propylcarbamoyl)piperidin-3-yl)(3-chloro-5-fluorophenyl)methoxy)ethylcarbamate]",< 10 nM
23,"CNC[C@H](CC1CCOCC1)NC(=O)N1CCC[C@@H]([C@@H](OCCNC(=O)OC)c2cc(F)cc(Cl)c2)C1 [I*-121a, methyl 2-((R)-(3-chloro-5-fluorophenyl)((R)-1-((S)-1-(methylamino)-3-(tetrahydro-2H-pyran-4-yl)propan-2-ylcarbamoyl)piperidin-3-yl)methoxy)ethylcarbamate]",< 20 nM
24,"CNC[C@H](CC1CCCCC1)NC(=O)N1CCC[C@@H]([C@@H](OCCNC(=O)OC)c2cccs2)C1 [I*-9a, methyl 2-((R)-((R)-1-((S)-1-cyclohexyl-3-(methylamino)propan-2-ylcarbamoyl)piperidin-3-yl)(thiophen-2-yl)methoxy)ethylcarbamate]",< 1 nM
25,"CNC[C@@H](NC(=O)N1CCC[C@@H]([C@@H](OCCNC(=O)OC)c2cccc(F)c2)C1)[C@@H](O)C1CCCC1 [I*-27a, methyl 2-((R)-((R)-1-((1S,2R)-1-cyclopentyl-1-hydroxy-3-(methylamino)propan-2-ylcarbamoyl)piperidin-3-yl)(3-fluorophenyl)methoxy)ethylcarbamate]",< 10 nM
